Test results as given in patent US20090036455A1, “ARYLPIPERAZINE DERIVATIVE AND USE THEREOF AS 5-HT1A RECEPTOR LIGANDS” (CEPA SCHWARZ PHARMA, S.L., priority 2004, published 2009).
Structures can show the parent of a compound that is named as a salt. Where two headings read alike, the source gives them in different places.

Experiments:
α1 adrenoceptor = test: Radioligand binding assay, α1 adrenoceptor ([3H]prazosin, rat cerebral cortex membranes); conditions: for Ki / percent value (α1): rat cerebral cortex membranes; for Ki: 0.2 nM [3H]prazosin, hydrochloride salts, read-out: Ki ± SEM (α1); for percent value (α1): [3H]prazosin, footnote to * not given; for binding to the α1 adrenoceptor (in words): see table 1
Procedure: (§1) For all receptor binding assays, male Sprague-Dawley rats (Rattus norvegicus albinus), weighing 180-200 g, were killed by decapitation and the brains rapidly removed and dissected. Tissues were stored at −80° C. for subsequent use and homogenized on a Polytron PT-10 homogenizer. Membrane suspensions were centrifuged on a Beckman J2-HS instrument.
The cerebral cortex was homogenized in 20 volumes of ice-cold buffer (50 mM Tris-HCl, 10 mM MgCl2, pH 7.4 at 25° C.) and centrifuged at 30000 g for 15 min. Pellets were washed twice by resuspension and centrifugation. Final pellets were resuspended in the same buffer. Fractions of the final membrane suspension (about 250 μg of protein) were incubated at 25° C. for 30 min with 0.2 nM [^3H]prazosin (23 Ci/mmol), in the presence or absence of six concentrations of the competing drug, in a final volume of 2 mL of buffer. Nonspecific binding was determined with 10 μM phentolamine.
(§2) For all binding assays, competing drug, nonspecific, total and radioligand bindings were defined in triplicate. Incubation was terminated by rapid vacuum filtration through Whatman GF/B filters, presoaked in 0.05% poly(ethylenimine), using a Brandel cell harvester. The filters were then washed with the assay buffer, dried and placed in poly(ethylene) vials to which were added 4 mL of a scintillation cocktail (Aquasol). The radioactivity bound to the filters was measured by liquid scintillation spectrometry. The data were analyzed by an iterative curve-fitting procedure (program Prism, Graph Pad), which provided IC50, Ki, and r^2 values for test compounds, Ki values being calculated from the Cheng and Prusoff equation. The protein concentrations of the rat cerebral cortex and the rat striatum were determined by the method of Lowry, using bovine serum albumin as the standard.

5-HT1A receptor = biological target: T1, 5-HT1A receptor (Rattus norvegicus, UniProt P19327); test: Radioligand binding assay, 5-HT1A receptor ([3H]-8-OH-DPAT, rat cerebral cortex membranes); conditions: for binding to the 5-HT1A receptor (in words): see table 1
T1 construct: The cerebral cortex was homogenized in 10 volumes of ice-cold Tris buffer; from tissue; host or cells: rat cerebral cortex membranes
T1 sequence (P19327 1-422): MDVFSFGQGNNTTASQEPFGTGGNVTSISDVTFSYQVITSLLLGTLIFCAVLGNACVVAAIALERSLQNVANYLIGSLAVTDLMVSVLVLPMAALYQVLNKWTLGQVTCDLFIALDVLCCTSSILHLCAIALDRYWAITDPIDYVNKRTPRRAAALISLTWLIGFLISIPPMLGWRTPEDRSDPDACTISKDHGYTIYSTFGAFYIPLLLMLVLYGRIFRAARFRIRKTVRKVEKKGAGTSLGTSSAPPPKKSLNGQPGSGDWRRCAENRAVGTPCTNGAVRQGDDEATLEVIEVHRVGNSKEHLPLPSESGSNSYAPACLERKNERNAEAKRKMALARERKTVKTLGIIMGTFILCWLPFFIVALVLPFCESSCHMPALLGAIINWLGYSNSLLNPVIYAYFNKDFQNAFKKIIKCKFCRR
Procedure: as §1
The cerebral cortex was homogenized in 10 volumes of ice-cold Tris buffer (50 mM Tris-HCl, pH 7.7 at 25° C.) and centrifuged at 28000 g for 15 min. The membrane pellet was washed twice by resuspension and centrifugation. After the second wash the resuspended pellet was incubated at 37° C. for 10 min. Membranes were then collected by centrifugation and the final pellet was resuspended in 50 mM Tris-HCl, 5 mM MgSO4, and 0.5 mM EDTA buffer (pH 7.4 at 37° C.). Fractions of 100 μL of the final membrane suspension (about 1 mg of protein) were incubated at 37° C. for 15 min with 0.6 nM [^3]-8-OH-DPAT (133 Ci/mmol), in the presence or absence of the competing drug, in a final volume of 1.1 mL of assay buffer (50 mM Tris-HCl, 10 nM clonidine, 30 nM prazosin, pH 7.4 at 37° C.). Nonspecific binding was determined with 10 μM 5-HT.
as §2

[1] = rat cerebral cortex membranes, 0.6 nM [3H]-8-OH-DPAT, hydrochloride salts, read-out: Ki ± SEM (5-HT1A)

Row | Structure (SMILES) | Ki (α1 adrenoceptor) [nM] | Ki (5-HT1A receptor; [1]) [nM] | percent value (α1) (α1 adrenoceptor) [%*] | further results
1 | O=C1C2CCCN2C(=O)CN1CCCCN1CCN(c2cccc3ccccc23)CC1 (centres unmarked) (as salt: hydrochloride) [Compound (g), 2-[4-[4-(Naphth-1-yl)piperazin-1-yl]butyl]-1,4-dioxoperhydropyrrolo[1,2-a]pyrazine] | – | – | – | melting point: 277 to 280 °C (dec.)
2 | O=C1C2CCCN2C(=O)CN1CCCCN1CCN(c2cccc3c2OCCCO3)CC1 (centres unmarked) (as salt: hydrochloride) [Compound (h), 2-[4-[4-(3,4-Dihydro-2H-1,5-benzodioxepin-6-yl)piperazin-1-yl]butyl]-1,4-dioxoperhydropyrrolo[1,2-a]pyrazine] | – | – | – | melting point: 212 to 213 °C (dec.)
3 | C[C@@H]1CN(c2cccc3ccccc23)CCN1CCCCN1CC(=O)N2CCCC2C1=O (mixture of isomers) [(a), (2R, 8aRS)-2-[4-[4-(Naphth-1-yl)-2-methylpiperazin-1-yl]butyl]-1,4-dioxoperhydropyrrolo[1,2-a]pyrazine] | 20.1 ± 0.8 | 4.2 ± 0.9 | – | –
4 | C[C@H]1CN(c2cccc3ccccc23)CCN1CCCCN1CC(=O)N2CCCC2C1=O (mixture of isomers) [(b), (2S, 8aRS)-2-[4-[4-(Naphth-1-yl)-2-methylpiperazin-1-yl]butyl]-1,4-dioxoperhydropyrrolo[1,2-a]pyrazine] | 34.4 ± 1.2 | 15.3 ± 1.8 | – | –
5 | C[C@@H]1CN(c2cccc(Cl)c2)CCN1CCCN1C(=O)C2CCCN2C1=O (mixture of isomers) [(i), (2R,7aRS)-(−)-2-[3-[4-(3-Chlorophenyl)-2-methylpiperazin-1-yl]propyl]-1,3-dioxoperhydropyrrolo[1,2-c]imidazole] | – | 11.7 ± 3.4 | 76 | –
6 | COc1cccc(N2CCN(CCCN3C(=O)C4CCCN4C3=O)[C@@H](C)C2)c1 (mixture of isomers) [(j), (2S,7aRS)-(+)-2-[3-[4-(3-Methoxyphenyl)-2-methylpiperazin-1-yl]propyl]-1,3-dioxoperhydropyrrolo[1,2-c]imidazole] | – | 21.9 ± 5.1 | 56 | –
7 | C[C@H]1CN(c2cccc3ccoc23)CCN1CCCN1C(=O)C2CCCN2C1=O (mixture of isomers) [(k), (2S,7aRS)-(−)-2-[3-[4-(1-Benzofuran-7-yl)-2-methylpiperazin-1-yl]propyl]-1,3-dioxoperhydropyrrolo[1,2-c]imidazole] | – | 6.7 ± 0.5 | 64 | –
8 | CC[C@@H]1CN(c2cccc3ccccc23)CCN1CCCCN1C(=O)C2CCCN2C1=O (mixture of isomers) [(l), (2R,7aRS)-(−)-2-[4-[2-Ethyl-4-(naphth-1-yl)piperazin-1-yl]butyl]-1,3-dioxoperhydropyrrolo [1,2-c]imidazole] | – | 2.4 ± 0.3 | 87 | –
9 | C[C@@H]1CN(c2cccc3nc[nH]c23)CCN1CCCCN1C(=O)C2CCCN2C1=O (mixture of isomers) [(m), (2R,7aRS)-(−)-2-[4-[4-(Benzimidazol-4-yl)-2-methylpiperazin-1-yl]butyl]-1,3-dioxoperhydropyrrolo[1,2-c]imidazole] | > 1000 | 2.3 ± 0.3 | – | –
10 | CC[C@@H]1CN(c2cccc(OC)c2)CCN1CCCCN1C(=O)C2CCCN2C1=O (mixture of isomers) [(o), (2R,7aRS)-(−)-2-[4-[2-Ethyl-4-(3-methoxyphenyl)piperazin-1-yl]butyl]-1,3-dioxoperhydropyrrolo[1,2-c]imidazole] | – | 21 ± 3 | 64 | –
11 | Cc1ccc(N2CCN(CCCCN3C(=O)C4CCCN4C3=O)[C@@H](C)C2)c2ccccc12 (mixture of isomers) [(p), (2S,7aRS)-(+)-2-[4-[2-Methyl-4-(4-methylnaphth-1-yl)piperazin-1-yl]butyl]-1,3-dioxoperhydropyrrolo[1,2-c]imidazole] | – | – | 75 | Ki (5-HT1A receptor): 15.3 ± 0.8 nM
12 | C[C@H]1CN(c2ccccc2)CCN1CCCCN1C(=O)C2CCCN2C1=O (mixture of isomers) [(q), (2S,7aRS)-(+)-2-[4-[2-Methyl-4-phenylpiperazin-1-yl]butyl]-1,3-dioxoperhydropyrrolo[1,2-c]imidazole] | – | 22.1 ± 0.1 | 62 | –
13 | C[C@H]1CN(c2cccc3nc[nH]c23)CCN1CCCCN1C(=O)C2CCCN2C1=O (mixture of isomers) [(r), (2S,7aRS)-(+)-2-[4-[4-(Benzimidazol-4-yl)-2-methylpiperazin-1-yl]butyl]-1,3-dioxoperhydropyrrolo[1,2-c]imidazole] | > 1000 | 4.1 ± 0.3 | – | –
14 | C[C@H]1CN(c2ccc([N+](=O)[O-])c3ccccc23)CCN1CCCCN1C(=O)C2CCCN2C1=O (mixture of isomers) [(s), (2S,7aRS)-(+)-2-[4-[2-Methyl-4-(4-nitronaphth-1-yl)piperazin-1-yl]butyl]-1,3-dioxoperhydropyrrolo[1,2-c]imidazole] | – | – | 66 | percent value marked * in column Ki ± SEM (5-HT1A) (5-HT1A receptor; rat cerebral cortex membranes, [3H]-8-OH-DPAT, footnote to * not given): 87%*
15 | C[C@@H]1CN(c2cccc3ccccc23)CCN1CN1CC(=O)N2CCC[C@@H]2C1=O [(c), (2R,8aR)-2-[[4-(Naphth-1-yl)-2-methylpiperazin-1-yl]methyl]-1,4-dioxoperhydropyrrolo[1,2-a]pyrazine] | > 1000 | 9.5 ± 2.2 | – | –
16 | C[C@H]1CN(c2cccc3ccccc23)CCN1CN1CC(=O)N2CCC[C@H]2C1=O [(d), (2S,8aS)-2-[[4-(Naphth-1-yl)-2-methylpiperazin-1-yl]methyl]-1,4-dioxoperhydropyrrolo[1,2-a]pyrazine] | > 1000 | 2.5 ± 0.1 | – | –
17 | C[C@@H]1CN(c2cccc3ccccc23)CCN1CN1CC(=O)N2CCC[C@H]2C1=O [(e), (2R,8aS)-2-[[4-(Naphth-1-yl)-2-methylpiperazin-1-yl]methyl]-1,4-dioxoperhydropyrrolo[1,2-a]pyrazine] | > 1000 | 6.3 ± 0.2 | – | –
18 | C[C@H]1CN(c2cccc3ccccc23)CCN1CN1CC(=O)N2CCC[C@@H]2C1=O [(f), (2S,8aR)-2-[[4-(Naphth-1-yl)-2-methylpiperazin-1-yl]methyl]-1,4-dioxoperhydropyrrolo[1,2-a]pyrazine] | > 1000 | 6.4 ± 0.1 | – | –
19 | C[C@H]1CN(c2cccc3ccoc23)CCN1CCCCN1C(=O)[C@@H]2CCCN2C1=O [(n), (2S,7aS)-(+)-2-[4-[4-(1-Benzofuran-7-yl)-2-methylpiperazin-1-yl]butyl]-1,3-dioxoperhydropyrrolo[1,2-c]imidazole] | – | 1.6 ± 0.4 | 75 | –
20 | O=C1C2CCCN2C(=O)CN1CCCCN1CCN(c2cccc3ccccc23)CC1 (centres unmarked) [Compound (g), 2-[4-[4-(Naphth-1-yl)piperazin-1-yl]butyl]-1,4-dioxoperhydropyrrolo[1,2-a]pyrazine] | 8 ± 1.7 | 0.5 ± 0.2 | – | binding to the α1 adrenoceptor (in words) (α1 adrenoceptor): low nanomolar range; binding to the 5-HT1A receptor (in words) (5-HT1A receptor): picomolar range
21 | O=C1C2CCCN2C(=O)CN1CCCCN1CCN(c2cccc3c2OCCCO3)CC1 (centres unmarked) [Compound (h), 2-[4-[4-(3,4-Dihydro-2H-1,5-benzodioxepin-6-yl)piperazin-1-yl]butyl]-1,4-dioxoperhydropyrrolo[1,2-a]pyrazine] | 348 ± 21 | 3.1 ± 0.9 | – | binding to the α1 adrenoceptor (in words) (α1 adrenoceptor): nanomolar range; binding to the 5-HT1A receptor (in words) (5-HT1A receptor): low nanomolar range
